Here are results for 2 molecules from paper PMC4994406, “Molecular cloning and characterization of a flavonoid-O-methyltransferase with broad substrate specificity and regioselectivity from Citrus depressa” (BMC Plant Biology, 2016).

SMILES strings stand for the structures.

Assay [1] has as its target T1, CdFOMT5 (Citrus depressa, UniProt A0A125T1T5).
T1 construct: gene FOMT5; full-length cDNA from fruit pericarp, C-terminal 6x His tag kept, pET21b(+) BamHI/SalI, E. coli BL21(DE3), Ni-Sepharose
T1 sequence (A0A125T1T5 1-353): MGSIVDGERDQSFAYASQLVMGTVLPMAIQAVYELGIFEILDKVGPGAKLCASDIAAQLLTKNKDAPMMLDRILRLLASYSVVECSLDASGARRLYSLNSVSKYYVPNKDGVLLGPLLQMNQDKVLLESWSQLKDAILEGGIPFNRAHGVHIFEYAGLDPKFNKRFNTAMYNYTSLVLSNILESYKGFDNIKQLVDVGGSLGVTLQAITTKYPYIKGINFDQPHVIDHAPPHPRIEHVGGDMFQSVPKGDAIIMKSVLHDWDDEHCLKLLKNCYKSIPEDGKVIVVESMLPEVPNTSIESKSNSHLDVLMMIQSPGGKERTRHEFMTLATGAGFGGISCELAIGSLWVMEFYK
In words: HPLC of methylated product. The note with it: 500 uM SAM, 100 uM substrate, 50 mM potassium phosphate pH 7.0, 30 °C, 1 h. Type of assay: biochemical.

In assay [2] the target is T1, CdFOMT5. In words: HPLC and LC-MS of O-methylated products. Particulars: 500 uM SAM, 100 uM substrate, 50 mM potassium phosphate pH 7.0, 30 °C, 1 h. It counts as biochemical.

`O=c1c(O)c(-c2ccccc2)oc2ccccc12` [3-hydroxyflavone]: on CdFOMT5 [1], the “HPLC of methylated product” value is recorded as “the highest activity was observed for 3-hydroxyflavone (flavonol) based on the peak area”.

`O=c1c(O)c(-c2ccc(O)c(O)c2)oc2cc(O)cc(O)c12` [S, quercetin]: the “HPLC and LC-MS of O-methylated products” value at CdFOMT5 [2] was “several peaks corresponding to O-methylated products were detected by HPLC analysis”.
